{"source": "patent US9913808B2", "about": "“Injectable pharmaceutical compositions for the treatment of joints” (priority 2010, dated 2018)", "test_system": "synovial membrane of knee joints of rabbits", "assay": "Intra-articular injection into rabbit knee joints, histological scoring of the synovial membrane after 24 hours", "format": "in vivo", "details": "for Prevention of irritation on intra-articular injection (in words): glycerol and glucitol in comparable circumstances, data not shown", "experimental": "After 24 hours the rabbits were sacrificed, the joints were removed and histological studies of the synnovial membrane were carried out. Each of the following histological findings was scored 0 to 3. a. Synovial lining hyperplasia b. Presence of Fibrin c. Inflammatory infiltration d. Necrosis […]", "key": {"[1]": {"details": "rabbit knee, intra-articular injection of the solution itself, sacrifice 24 h after injection, sulphate"}, "[2]": {"details": "rabbit knee, intra-articular injection of the solution itself, sacrifice 24 h after injection"}}, "data": [{"compound": "sodium Hyaluronate [1% sodium Hyaluronate in saline]", "values": [{"measurement": "Histological score of synovial membrane (synovial lining hyperplasia, fibrin, inflammatory infiltration, necrosis, each scored 0 to 3), Mean", "setting": "rabbit, in vivo", "result": 1.0}]}, {"compound": "CCCCCCCCCCCCOS(=O)(=O)[O-].[Na+]", "note": "[0.5% SLS in saline (positive control), sodium lauryl sulphate]", "values": [{"measurement": "Histological score of synovial membrane (synovial lining hyperplasia, fibrin, inflammatory infiltration, necrosis, each scored 0 to 3), Mean", "setting": "rabbit knee, intra-articular injection of the solution itself, sacrifice 24 h after injection, listed as 0.5% SLS in saline, sulphate", "result": 5.8}, {"measurement": "Histological score of synovial membrane (synovial lining hyperplasia, fibrin, inflammatory infiltration, necrosis, each scored 0 to 3), Mean", "setting": "[1]", "result": 5.8}]}, {"compound": "OCC(O)CO", "note": "[glycerol]", "values": [{"measurement": "Prevention of irritation on intra-articular injection (in words)", "setting": "rabbit knee", "result": "lack of prevention of irritation"}]}, {"compound": "OC[C@@H](O)[C@@H](O)[C@H](O)[C@H](O)CO", "note": "[5.4% Mannitol in distilled water, Mannitol]", "values": [{"measurement": "Histological score of synovial membrane (synovial lining hyperplasia, fibrin, inflammatory infiltration, necrosis, each scored 0 to 3), Mean", "setting": "[2]", "result": 3.4}, {"measurement": "Prevention of irritation on intra-articular injection (in words)", "setting": "rabbit knee", "result": "does not prevent irritation"}]}, {"compound": "OC[C@@H](O)[C@@H](O)[C@H](O)[C@@H](O)CO", "note": "[glucitol]", "values": [{"measurement": "Prevention of irritation on intra-articular injection (in words)", "setting": "rabbit knee", "result": "lack of prevention of irritation"}]}, {"compound": "OC[C@@H](O)[C@H](O)[C@@H](O)CO", "note": "[4.5% Xylitol in distilled water, Xylitol]", "values": [{"measurement": "Histological score of synovial membrane (synovial lining hyperplasia, fibrin, inflammatory infiltration, necrosis, each scored 0 to 3), Mean", "setting": "[2]", "result": 1.4}]}, {"compound": "CCCCCCCCCCCCOS(=O)(=O)[O-].[Na+]", "note": "[0.2% SLS in saline, sodium lauryl sulphate]", "values": [{"measurement": "Histological score of synovial membrane (synovial lining hyperplasia, fibrin, inflammatory infiltration, necrosis, each scored 0 to 3), Mean", "setting": "[1]", "result": 1.4}]}]}
